In patent US20040072750A1, “Compounds and methods for the modulation of CD154” (priority 2001, published 2004):

Key:
Type in all cases: cell-based, human
[1] = test system: washed platelets; assay: Cleavage of CD40L into sCD40L in platelet lysates (immunoblotting); conditions: TRAP 5 μM; activated or aggregated platelets; FIG. 4
Method: (§1) Collected blood was centrifuged at 160×g for 20 minutes at room temperature (Beckman GP) and the PRP layer was collected. PRP was then centrifuged at 1100×g for 10 minutes to sediment platelets. Platelets were washed twice by repeat suspending and pelleting in CGS (13 mM trisodium citrate, 120 mM NaCl, 30 mM Dextrose, pH 7.0) containing 0.05 μg/ml PGI2 for the first wash. The final suspension of platelets (5×10^8/ml) was in Tyrode's Hepes.
Cleavage of the full length CD40L (32 kD) yields the 18 kD soluble from (sCD40L). 500 μl of Washed platelets were gently mixed with TRAP (5 μM) to initiate the platelet activation. Metalloproteinase inhibitors GM6001 (50 μM, Calbiochem) or DMSO were added to washed platelets, and incubated at 37° C. with or without rocking for 30 minutes. […] Platelets were removed from suspension by centrifugation for 10 minutes at 15,000×g, 4° C. and the resulting platelet pellets were dissolved in the loading buffer. The proteins in the platelet lysates were resolved with SDS-PAGE, transferred onto nitrocellulose membrane, and blotted with anti-CD40L antibody (MK13A4, Alexis).

[2] = test system: washed platelets; assay: sCD40L release from TRAP activated, not aggregated washed platelets (ELISA); conditions: for release of sCD40L from TRAP activated, but not aggregated, platelets: 50 μM, FIG. 3; for release of sCD154 from TRAP-stimulated platelets: 5-50 μM inhibitor, 5 μM TRAP, no rocking
Method: as §1, with “Washed platelets were prepared from blood drawn into ⅙^th volume of ACD containing (85 mM sodium citrate, 111 mM dextrose and 71 mM citric acid) with 0.05 μg/ml PGI2. Collected” for “Collected”
The release of sCD40L from the activated platelets was determined as follows: 500 μL of washed platelets were gently mixed 5 μM of TRAP and incubated at 37° C. without rocking for 30 min. Under this condition, platelets were activated but not aggregated. 5-50 μM of metalloproteinase inhibitors GM6001 (Galardin, Calbiochem) or TAPI-1 (Peptides International) were added to the washed platelets before the addition of TRAP. Platelets were removed from suspension by centrifugation for 10 minutes at 15,000×g, 4° C. and the resulting supernatants were collected. The levels of sCD154 were measured by ELISA.

[3] = test system: washed platelets; assay: TRAP6-induced aggregation of washed platelets (aggregometer); conditions: 1 μM TRAP6; 0.1-1.0 μg/ml TIMP-2 or 5-50 μM TAPI-1
Method: as §1, with “Washed platelets were prepared from blood drawn into ⅙ th volume of ACD containing (85 mM sodium citrate, 111 mM dextrose and 71 mM citric acid) with 0.05 μg/ml PGI2. Collected” for “Collected”, “resuspending” for “repeat suspending and pelleting”, “(3×10^8/ml)” for “(5×10^8/ml)”
a. For platelet aggregation studies, 500 μL of washed platelets were allowed to stir in a Chrono-Log Aggregometer before the addition of 1 μM TRAP6 to initiate aggregation. Subsequent samples included various metalloproteinase inhibitors added to washed platelets before the addition of TRAP6; 0.1-1.0 μg/ml TIMP-2 (Calbiochem) or 5-50 μM TAPI-1 (Peptides International). Aggregation proceeded for 5 minutes and the amplitude of each aggregometer tracing was calculated by Aggro-Link software.

[4] = test system: washed platelets; assay: sCD154 release from TRAP6-stimulated washed platelets with rocking (ELISA); conditions: rocking 30 minutes, 37° C.
Method: as §1, with “Washed platelets were prepared from blood drawn into ⅙ th volume of ACD containing (85 mM sodium citrate, 111 mM dextrose and 71 mM citric acid) with 0.05 μg/ml PGI2. Collected” for “Collected”, “resuspending” for “repeat suspending and pelleting”, “(3×10^8/ml)” for “(5×10^8/ml)”
b. CD154 determinations were made as follows: Washed platelets were incubated at 37° C. with various concentrations of TIMP-2 and TAPI-1 (see above) while rocking on a Nutator for 30 minutes. Platelets or platelet aggregates were removed from suspension by centrifugation for 10 minutes at 15,000×g, 4° C. and the resulting supernatants were collected. The levels of sCD154 were measured by ELISA.

CNC(=O)[C@H](Cc1c[nH]c2ccccc12)NC(=O)[C@@H](CC(=O)NO)CC(C)C [GM6001, N-[(2R)-2-(Hydroxamidocarbonylmethyl)-4-methylpentanoyl]-L-tryptophan methylamide]
inhibited: cleavage of the full length CD40L to the 18 kD soluble form [1] | release of sCD40L from TRAP activated, but not aggregated, platelets [2] | release of sCD154 from TRAP-stimulated platelets [2]

CC(C)C[C@H](CC(=O)NO)C(=O)N[C@@H](Cc1ccc2ccccc2c1)C(=O)N[C@@H](C)C(=O)NCCN [TAPI-1, HONHCOCH2CH(CH2CH(CH3)2-CO-NaI-Ala-NHCH2CH2NH2]
inhibited: release of sCD40L from TRAP activated, but not aggregated, platelets [2] | release of sCD154 from TRAP-stimulated platelets [2] | platelet aggregation induced by sub-optimal concentrations of TRAP6 [3] | release of sCD154 from TRAP6-stimulated platelets [4]
